Laboratory results as given in patent US20240117303A1, “METHODS AND COMPOSITIONS FOR GENERATING HUMAN MIDBRAIN DOPAMINERGIC NEURONS FROM NEURAL PROGENITOR CELLS” (Trailhead Biosystems Inc., priority 2022, published 2024).
“Also recorded” adds a separate entry of the source.

Tests used:
Format in all cases: cell-based, human
[1] = tested on: stage 2 neural progenitors; assay: HD-DoE another 12-factor model for stage 3 recipe (FIG. 24, 25, 30); settings: for level of MSX1 in absence of the factor / level of SOX6 in absence of the factor: AZD3147, DBZ, PD0325901 and BMP7 set; for level of MSX1 in absence of the factor: 45 with all factors; for level of SOX6 in absence of the factor: 185 with all factors; for impact on expression of MSX1 / impact on expression of SOX6: dynamic profile, 12 effectors; for factor contribution: model optimized for SOX6, positive impact
Experimental: In another 12-factor model, additional factors including Activin A, Takinib (TAK inhibitor), FGF8b, AZD3147 (mTOR antagonist), MHY1485 (mTOR agonist), and Yhhu-3792 (Notch agonist) were tested. Some of the factors from previous model (BMP7, A 8301, LDN193189, PD0325901, MK2206 and DBZ) were also included.
(§1) To assess the impact of elimination of each validated factor identified in Example 5 for the stage 3 and stage 4 recipes, we used dynamic profile analysis and compared the expression level of genes of interest in absence of each finalized factor while others are present.
In another model, to determine the combinatorial effect of AZD3147 and DBZ on gene profile of cells in presence of other factors of final recipe, the expression levels of SOX6 and MSX1 were compared in the absence of each of the factors in the presence of PD0325901 and BMP7. These two compounds were the only final compounds that were included in inputs of this experimental model The results are shown in FIG. 30A and FIG. 30B. […] When DBZ was removed, the level of SOX6 and MSX1 both decreased to 140 and 35, respectively.

MB neural progenitors = assay: HD-DoE 8-factor model, DBZ and AZD3147 (FIG. 26); settings: dynamic profile
[2] = tested on: stage 1 neural stem cells; assay: HD-DoE 12-factor experiment for stage 2 recipe (second model, FIG. 8-10, 13)
[3] = tested on: stage 2 neural progenitors; assay: HD-DoE 12-factor model for stage 3 recipe (FIG. 19-23, 29); settings: model optimized for maximum expression of KCNJ6; positive regulators
stage 3 immature neurons = assay: HD-DoE 8-factor experiment for stage 4 recipe (FIG. 27, 28, 31)
Experimental: To further differentiate the cells to a mature neuronal identity, additional HD-DoE experiments were performed on the cells that were cultured in stage 1, stage 2 and stage 3 differentiation media. After 4 days, gene expression of cells in different combinatorial conditions were investigated. At this time, we focused on maximal expression of more mature dopaminergic genes such as NR4A2, PITX3 and TH (Tiklová et al. (2020) Nat Commun. 11:2434; Fiorenzano et al. (2021) Nat Commun., 12:7302). In one model, cells were treated with a combinatorial matrix with eight inputs including CHIR99021, BDNF, GDNF, Rosiglitazone, GW7647, DBZ and heparin.
as §1
In the stage 4 recipe, each of six finalized factors were excluded while other factors were present and the expression levels of NR4A2 and PITX3 were assessed compared to the presence of all factors.

SMILES	level of MSX1 in absence of the factor [1]	level of SOX6 in absence of the factor [1]	impact on expression of MSX1 [1]	impact on expression of SOX6 [1]	factor contribution [1]	impact on expression of CORIN, KCNJ6, SOX6 and MSX1 (MB neural progenitors)	impact on expression of FOXA2 ([2]; dynamic profile, 12 effectors)	impact on expression of LMX1A ([2]; dynamic profile, 12 effectors)	factor contribution ([2]; model optimized for maximum expression of FOXA2, positive impact)	level of FOXA2 in absence of the factor ([2]; stage 2 recipe, second experiment model)	level of LMX1A in absence of the factor ([2]; stage 2 recipe, second experiment model, 4000 with all factors)	factor contribution [3]	impact on expression of NR4A2 (stage 3 immature neurons; 8-factor model / dynamic profile)	expression level of PITX3 in absence of the factor (stage 3 immature neurons; stage 4 recipe, other factors present, 40 with all factors)	expression level of NR4A2 in absence of the factor (stage 3 immature neurons; stage 4 recipe, other factors present, 400 with all factors)
C[C@H]1COCCN1c1cc(C2(S(=O)(=O)C3CC3)CC2)nc(-c2ccc(NC(=S)NCCO)cc2)n1 [AZD 3147]	did not change	150	did not show any significant impact	positive impact	20.2	positive regulatory effect; also recorded: Positive impact	did not reduce	significant positive impact	10.9	almost no effect	2000				
C[C@H](NC(=O)Cc1cc(F)cc(F)c1)C(=O)N[C@@H]1C(=O)N(C)c2ccccc2-c2ccccc21 [DBZ]	35	140	did not show any significant impact	positive impact	21.5	positive regulatory effect; also recorded: Positive impact						low factor contributions	positive regulatory impact	30	200
